Results reported in PubChem BioAssay (NCI).
Values joined by “and” are separate entries in the source; they are usually repeats but may differ in a detail not shown here. Equal entries are not always repeated.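 96-well plates; 48 h exposure; 5 concentrations. Endpoints by linear interpolation between flanking doses. Not reached: highest tested concentration assigned. Here, GI50 denotes the concentration required for 50% inhibition of growth. TGI denotes the concentration required for complete inhibition of growth.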

How the values were obtained:
Assay in all cases: NCI anticancer screen, dose series, 48 h
[1] = system: NCI-H23 lung
[2] = system: SF-539 CNS
[3] = system: OVCAR-8 ovarian
[4] = system: MOLT-4 leukemia
[5] = system: UO-31 renal
[6] = system: A549 NSCLC
[7] = system: KM12 colon
[8] = system: COLO 205 colon
[9] = system: SNB-75 CNS
[10] = system: HCT-15 colon

Structure (SMILES)	GI50 [1]	TGI [1]	GI50 [2]	TGI [2]	GI50 [3]	TGI [3]	GI50 [4]	TGI [4]	GI50 [5]	TGI [5]	GI50 [6]	TGI [6]	GI50 [7]	TGI [7]	GI50 [8]	TGI [8]	GI50 [9]	TGI [9]	GI50 [10]	TGI [10]
COc1cc(/C=C2\C(=O)Nc3ccc(Cl)cc32)cc(OC)c1OC	12.9 µM	39.2 µM	16.8 µM	45.6 µM	22.9 µM	> 100 µM	75.1 µM	> 100 µM	16 µM	> 100 µM	41.2 µM	> 100 µM	4.07 µM	> 100 µM	8.01 µM	> 100 µM	7 µM	21.8 µM	9.16 µM	> 100 µM
COc1cc(-c2n/c(=C\c3c(O)[nH]c4ccccc34)cc3c2=Nc2ccccc2-3)ccc1F	2.83 µM	17.6 µM	11.7 µM	33.2 µM	8.4 µM	31.5 µM	9.61 µM	97.9 µM	25.6 µM	> 100 µM	7.06 µM	23.5 µM	7.7 µM	> 100 µM	10.9 µM	> 100 µM	16.2 µM	63.6 µM	17.2 µM	> 100 µM
CCOC(=O)NC(=O)c1cn(CCN(CCO)C(=O)NCCCCCCNC(=O)N(CCO)CCn2cc(C(=O)NC(=O)OCC)c(=O)[nH]c2=O)c(=O)[nH]c1=O	–	> 100 µM	–	> 100 µM	–	> 100 µM	–	> 100 µM	–	> 100 µM	–	> 100 µM	–	> 100 µM	–	> 100 µM	–	> 100 µM	–	> 100 µM
N#CC1(C#N)C(=O)c2ccncc2C1=O	–	> 100 µM	–	> 100 µM	–	> 100 µM	–	–	–	> 100 µM	–	> 100 µM	–	> 100 µM	–	> 100 µM	–	> 100 µM	–	> 100 µM
CCCC[n+]1ccn(-c2nc3ccccc3n2C)c1	–	> 100 µM	–	> 100 µM	–	> 100 µM	–	> 100 µM	–	> 100 µM	–	> 100 µM	–	–	–	–	–	> 100 µM	–	> 100 µM
C/C=C(\C)C(=O)OC1C2C(C)=CC(=O)C(O)C2(C)C2C3(O)OCC24C1OC(=O)C(OC(C)=O)C4C(C)C3O (stereo not drawn)	–	0.266 µM	–	–	–	0.105 µM	–	0.75 µM	–	0.887 µM	–	0.648 µM	–	0.0375 µM	–	0.229 µM	–	0.055 µM	–	0.328 µM
CN(CCO)CCC1COc2ccccc2O1 (stereo not drawn)	–	> 10 µM	–	> 10 µM	–	> 10 µM	–	> 10 µM	–	> 10 µM	–	> 10 µM	–	> 10 µM	–	> 10 µM	–	> 10 µM	–	> 10 µM
COC1=CC(c2ccc[nH]2)=N/C1=C\c1[nH]c(C)c(CC(=O)NCc2ccccc2)c1C	–	–	1.89 µM	3.51 µM	–	–	–	–	1.64 µM	3.16 µM	1.66 µM	3.15 µM	1.12 µM	2.59 µM	1.38 µM	2.98 µM	1.51 µM	2.89 µM	1.06 µM	2.45 µM
O=C(N/N=C\c1ccc(N(CCCl)CCCl)cc1)c1cccnc1	15.8 µM	> 100 µM	29.3 µM	> 100 µM	39.8 µM	> 100 µM	6.95 µM	> 100 µM	14.1 µM	> 100 µM	37.5 µM	> 100 µM	61.9 µM	> 100 µM	> 100 µM	> 100 µM	33.7 µM	> 100 µM	37.1 µM	> 100 µM
N/C(=C\c1ccc(/C=C(\NC(=O)c2ccccc2)c2nc3c([nH]2)C(=O)c2ccccc2C3=O)cc1)c1nc2c([nH]1)C(=O)c1ccccc1C2=O	–	32.8 µM	–	30.2 µM	–	61.8 µM	–	29.3 µM	–	17.7 µM	–	36.5 µM	–	29 µM	–	29.9 µM	–	18.8 µM	–	37.7 µM
COc1ccc2c(c1)C(=O)c1c-2n(CCCN=[N+]=[N-])c(=O)c2cc([N+](=O)[O-])ccc12	0.244 µM	18 µM	–	–	–	> 100 µM	< 0.001 µM	–	< 0.001 µM	2.22 µM	–	> 100 µM	0.558 µM and 3.4 µM	> 100 µM	–	> 100 µM	3.47 µM	20.5 µM	–	–
N#C[S-].[Ce+3].c1ccc(-c2ccccn2)nc1.c1ccc(-c2ccccn2)nc1.c1ccc(-c2ccccn2)nc1	26.9 µM	97.3 µM	27.3 µM	> 100 µM	13.5 µM	> 100 µM	–	–	4.46 µM	28.7 µM	24.8 µM	> 100 µM	38 µM	> 100 µM	33 µM	> 100 µM	15.2 µM	> 100 µM	5.18 µM	> 100 µM
CC1=C/C(=N\NS(=O)(=O)c2ccc([N+](=O)[O-])cc2)CC(C)(C)C1	–	> 100 µM	–	> 100 µM	–	> 100 µM	–	> 100 µM	–	> 100 µM	–	> 100 µM	–	> 100 µM	–	> 100 µM	–	–	–	> 100 µM
COC(Cc1cc(C(O)(c2ccc(C(C)(C)C)cc2)c2cc(CC(OC)(c3cc(C(OC)(c4ccc(C(C)(C)C)cc4)c4ccc(C(C)(C)C)cc4)c(C)cc3C)c3cc(C(OC)(c4ccc(C(C)(C)C)cc4)c4ccc(C(C)(C)C)cc4)c(C)cc3C)c(C)cc2C)c(C)cc1C)(c1cc(C(OC)(c2ccc(C(C)(C)C)cc2)c2ccc(C(C)(C)C)cc2)c(C)cc1C)c1cc(C(OC)(c2ccc(C(C)(C)C)cc2)c2ccc(C(C)(C)C)cc2)c(C)cc1C	–	> 75 µM	–	> 75 µM	–	> 75 µM	–	> 75 µM	–	> 75 µM	–	> 75 µM	–	–	–	> 75 µM	–	> 75 µM	–	> 75 µM
COc1nc2ccc(Cl)c(C(O)c3ccccc3)c2nc1OC (stereo not drawn)	–	61.2 µM	–	32.8 µM	–	> 100 µM	–	46.4 µM	–	> 100 µM	–	78.6 µM	–	> 100 µM	–	32.5 µM	–	> 100 µM	–	50.1 µM
